The values below come from patent US12448378B2, “Fluoropyrrolopyridine compound and application thereof” (Wuxi Life Fountain Biotech Co., Ltd, priority 2020, dated 2025).

The target of data set [1] is human ATR kinase (ATR/ATRIP (h)) (Homo sapiens (Human), UniProt Q13535). As to the kind of experiment: ATR enzyme activity in vitro (HTRF kinase assay). The class given is biochemical. Conditions: 10 μM ATP, GST-cMyc-p53 substrate. As for the experimental part: The inhibitory activity of the test compounds against human ATR kinase was evaluated by measuring IC50 value.
ATR/ATRIP (h) was incubated in detection buffer containing 50 nM GST-cMyc-p53 and Mg/ATP (10 μM). The reaction was initiated by adding Mg/ATP mixture. After incubation at room temperature for 30 minutes, the reaction was terminated by adding a termination solution containing EDTA. Finally, a detection buffer containing d^2-labeled anti-GST monoclonal antibody and europium-labeled anti-phospho-Ser15 antibody against phosphorylated p53 were added. Plates were then read in time-resolved fluorescence mode for homogeneous time resolution.
The fluorescence (HTRF) signal was determined according to the formula HTRF=10000×(Em665 nm/Em620 nm).
For orientation: In TR-FRET formats the signal depends on donor and acceptor labels being close together.

Another data set concerns tumor cell line LoVo. As to the kind of experiment: In vitro LoVo cell proliferation inhibition (CellTiter-Glo). Conditions: Homo sapiens, LoVo cells. The class given is cell-based. As for the experimental part: In this experiment, the inhibitory effect of the compounds on cell proliferation was studied by detecting the effect of the compounds on the in vitro cell activity in the tumor cell line LoVo.
CellTiter-Glo Luminescent Cell Viability Assay
The following steps were carried out according to the instructions of PromegaCellTiter-Glo luminescent cell viability assay kit (Promega-G7573).
(1) CellTiter-Glo buffer was thawed and placed at room temperature.
(2) CellTiter-Glo substrate was placed at room temperature.
(3) CellTiter-Glo working solution was prepared by adding CellTiter-Glo buffer to a vial of CellTiter-Glo substrate to dissolve the substrate.
(4) Slowly vortexed to fully dissolve. […]
(8) The culture plate was left at room temperature for 10 minutes to stabilize the luminescence signal.
(9) The luminescence signal was detected on the SpectraMax i3x of Molecular Devices plate reader.
The Inhibition rate (IR) of the test compound was calculated using the following formula: IR (%)=(1−(RLU compound−RLU blank control)/(RLU solvent control−RLU blank control))*100%. The inhibition rates of different concentrations of the compounds were calculated in Excel, and then the inhibition curves were made by GraphPad Prism software and the related parameters were calculated, including the minimum inhibition rate, the maximum inhibition rate and IC50.
Background: ATP-based viability assays read luminescence as a measure of living cells.

Data set [2] in a line: In vivo pharmacokinetics in female Balb/c Nude mice. The procedure: Test sample: On the basis of the above experiments, compound 1 was selected for further experiments.
Experimental methods: The purpose of this study was to determine the pharmacokinetic parameters of compound 1 and to calculate its oral bioavailability in female Balb/c Nude mice. This project used 4 female Balb/c Nude mice. Two mice were administered intravenously at a dose of 1 mg/kg, and plasma samples were collected at 0 hours (before administration) and 0.0833, 0.25, 0.5, 1, 2, 4, 6, 8, 24 hours after administration. The other two mice were administered orally by gavage at a dose of 10 mg/kg or 25 mg/kg, and plasma samples were collected at 0 hours (before administration) and 0.25, 0.5, 1, 2, 4, 6, 8, 24 hours after administration. The collected samples were then analyzed by LC/MS/MS and data were collected. The collected analysis data were used to calculate the relevant pharmacokinetic parameters by Phoenix WinNonlin 6.2.1 software.

The subject of data set [3] is human gastric cancer SNU-601 xenograft tumor. As to the kind of experiment: In vivo efficacy, human gastric cancer cell SNU-601 CDX xenograft model. Set-up: species or system mice. Conditions: for tumor volume: day 21, CB17 SCID mice. The source says:
The main objective of this study was to study the antitumor efficacy of the test sample on the xenograft tumor model of human gastric cancer cell SNU-601.
• Species: mice • Strain: CB17 SCID mice • Supplier: Huafukang Laboratory Animal Technology Co., Ltd. • Week age: 6-8 weeks old • Gender: female 2. Cell Culture
Human gastric cancer SNU-601 cells, sourced from KCLB (Cat. No.: 00601), were maintained and passaged by HD Biosciences (Shanghai) Co., Ltd. In vitro culture conditions were RPMI 1640 culture medium (containing 300 mg/L L-glutamine) with 10% fetal bovine serum, 25 mM HEPES and 25 mM sodium bicarbonate, incubated in 5% CO2 incubator at 37° C., and passaged for two or three times a week. When the number of cells reached the requirement, the cells were collected and counted. 0.2 mL (5×10^6 cells) SNU-601 cells (resuspended in DPBS:Matrigel=1:1) were subcutaneously inoculated into the right back of each mouse, and the group administration was started when the average tumor volume reached 147.61 mm^3.
Administration dosage: Compound 1 was orally administered at three doses of 15 mg/kg (administered for 3 days without administration for 4 days), 10 mg/kg (administered for 3 days without administration for 4 days) and 5 mg/kg (continuous administration).
Tumor diameters were measured with vernier calipers three times a week. The tumor volume was calculated by the formula: V=0.5×a×b^2, wherein a and b referred to the long and short diameter of the tumor, respectively. The calculation formula of relative tumor volume (RTV) was: RTV (%)=(Vt/V1)×100; the calculation formula of animal body weight change (BWC) was: BWC (%)=(BWt−BW1)/BW1×100, wherein V1 and BW1 referred to the tumor volume and body weight of a certain animal on the day of group administration, and Vt and BWt referred to the tumor volume and body weight of a certain animal at a certain measurement.
The antitumor efficacy of the compounds was evaluated by TGI (%) or relative tumor proliferation rate T/C (%). Relative tumor proliferation rate T/C (%)=TRTV/CRTV×100 (TRTV: mean RTV of the treatment group; CRTV: mean RTV of the negative control group). The relative tumor volume (RTV) was calculated according to the results of tumor measurement, and the calculation formula was RTV=Vt/V1, wherein V1 was the tumor volume measured at the time of group administration (that is, D1), Vt was the tumor volume at a certain measurement, and the data of TRTV and CRTV were taken on the same day.
TGI (%) reflected the tumor growth inhibition rate. TGI (%)=[(1−(average tumor volume at the end of administration of a certain treatment group−average tumor volume at the beginning of administration of this treatment group))/(average tumor volume at the end of treatment in the solvent control group−average tumor volume at the beginning of treatment in the solvent control group)]×100.
After the experiment, the tumor weight would be detected, and the percentage of Tweight/Cweight would be calculated. Tweight and Cweight referred to the tumor weight of the administration group and the solvent control group, respectively.
In this experiment, the xenograft tumor model of human gastric cancer cell SNU601 was used to evaluate the in vivo efficacy of the test compounds. During the whole administration period, no animals were discontinued due to body weight loss of more than 10%, and the efficacy test was terminated on the 21st day after administration.
In general terms: Xenograft models place foreign cells or tissue in a host animal.

Setting [4] is: mouse, plasma, intravenous 1 mg/kg.
The mark [5] stands for this setting: whole experimental period, compound 1 administration group.

human ATR kinase (ATR/ATRIP (h)), sequence (Q13535 whole entry): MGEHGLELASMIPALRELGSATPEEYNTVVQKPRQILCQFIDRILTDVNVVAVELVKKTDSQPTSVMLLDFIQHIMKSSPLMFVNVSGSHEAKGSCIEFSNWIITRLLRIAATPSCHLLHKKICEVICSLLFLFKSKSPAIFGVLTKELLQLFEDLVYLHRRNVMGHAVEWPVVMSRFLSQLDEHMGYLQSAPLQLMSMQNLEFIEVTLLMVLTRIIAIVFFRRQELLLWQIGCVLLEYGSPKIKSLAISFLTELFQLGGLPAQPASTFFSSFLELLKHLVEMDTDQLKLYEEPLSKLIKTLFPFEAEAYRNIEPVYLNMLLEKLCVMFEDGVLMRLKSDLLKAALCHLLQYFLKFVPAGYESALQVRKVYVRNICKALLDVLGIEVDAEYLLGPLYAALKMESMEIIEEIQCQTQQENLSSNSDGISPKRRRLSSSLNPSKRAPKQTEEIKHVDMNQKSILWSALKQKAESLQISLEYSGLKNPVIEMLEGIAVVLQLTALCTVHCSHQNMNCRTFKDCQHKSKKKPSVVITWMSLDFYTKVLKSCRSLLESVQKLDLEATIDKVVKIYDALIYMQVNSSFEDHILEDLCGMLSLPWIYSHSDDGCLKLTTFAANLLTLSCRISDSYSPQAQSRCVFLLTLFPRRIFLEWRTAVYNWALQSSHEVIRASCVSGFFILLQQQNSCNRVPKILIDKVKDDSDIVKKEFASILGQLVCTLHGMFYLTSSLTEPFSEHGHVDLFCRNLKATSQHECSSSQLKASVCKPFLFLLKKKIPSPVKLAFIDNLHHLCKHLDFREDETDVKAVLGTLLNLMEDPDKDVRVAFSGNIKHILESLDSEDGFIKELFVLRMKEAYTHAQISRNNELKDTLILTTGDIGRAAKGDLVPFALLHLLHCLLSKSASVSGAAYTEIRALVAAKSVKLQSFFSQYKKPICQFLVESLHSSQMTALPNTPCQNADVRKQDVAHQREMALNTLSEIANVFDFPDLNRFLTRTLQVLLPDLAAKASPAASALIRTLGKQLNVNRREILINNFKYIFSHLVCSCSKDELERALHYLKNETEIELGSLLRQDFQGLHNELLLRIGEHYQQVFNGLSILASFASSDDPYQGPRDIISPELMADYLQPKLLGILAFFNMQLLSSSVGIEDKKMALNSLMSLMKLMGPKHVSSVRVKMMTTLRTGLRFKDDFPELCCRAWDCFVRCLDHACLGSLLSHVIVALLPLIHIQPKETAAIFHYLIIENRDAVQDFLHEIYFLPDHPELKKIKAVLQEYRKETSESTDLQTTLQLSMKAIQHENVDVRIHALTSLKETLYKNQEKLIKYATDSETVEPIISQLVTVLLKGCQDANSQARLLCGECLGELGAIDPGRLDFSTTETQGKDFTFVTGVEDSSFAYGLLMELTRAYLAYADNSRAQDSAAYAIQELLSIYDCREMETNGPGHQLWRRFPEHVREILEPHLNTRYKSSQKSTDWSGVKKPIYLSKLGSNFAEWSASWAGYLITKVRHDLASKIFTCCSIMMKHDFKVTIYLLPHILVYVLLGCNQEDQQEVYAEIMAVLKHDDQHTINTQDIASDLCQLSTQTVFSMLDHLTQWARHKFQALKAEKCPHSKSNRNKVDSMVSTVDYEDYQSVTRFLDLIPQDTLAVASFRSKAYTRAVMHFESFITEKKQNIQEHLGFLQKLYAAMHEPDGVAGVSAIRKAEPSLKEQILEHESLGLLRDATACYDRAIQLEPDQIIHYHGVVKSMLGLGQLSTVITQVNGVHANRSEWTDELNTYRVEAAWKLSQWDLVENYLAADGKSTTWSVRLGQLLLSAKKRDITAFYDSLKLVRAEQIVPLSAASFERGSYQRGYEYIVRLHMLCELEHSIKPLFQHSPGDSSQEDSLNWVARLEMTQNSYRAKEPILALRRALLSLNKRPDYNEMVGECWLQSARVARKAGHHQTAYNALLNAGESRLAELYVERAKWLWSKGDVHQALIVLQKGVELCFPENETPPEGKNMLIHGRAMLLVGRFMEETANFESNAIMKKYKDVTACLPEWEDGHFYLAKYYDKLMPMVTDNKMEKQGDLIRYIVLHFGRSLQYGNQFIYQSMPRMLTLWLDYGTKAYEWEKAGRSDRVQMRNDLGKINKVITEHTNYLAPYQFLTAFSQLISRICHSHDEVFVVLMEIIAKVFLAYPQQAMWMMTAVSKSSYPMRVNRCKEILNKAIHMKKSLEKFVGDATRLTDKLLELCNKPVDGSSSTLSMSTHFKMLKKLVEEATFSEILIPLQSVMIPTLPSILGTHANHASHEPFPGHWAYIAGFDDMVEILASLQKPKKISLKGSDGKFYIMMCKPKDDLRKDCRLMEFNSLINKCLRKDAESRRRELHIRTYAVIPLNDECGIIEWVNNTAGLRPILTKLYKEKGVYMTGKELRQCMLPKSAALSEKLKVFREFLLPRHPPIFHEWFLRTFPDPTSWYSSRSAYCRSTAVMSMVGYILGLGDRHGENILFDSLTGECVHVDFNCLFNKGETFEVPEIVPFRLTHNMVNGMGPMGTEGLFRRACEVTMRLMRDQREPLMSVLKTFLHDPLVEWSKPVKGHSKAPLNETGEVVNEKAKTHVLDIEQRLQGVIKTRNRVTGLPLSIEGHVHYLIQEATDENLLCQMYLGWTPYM
human ATR kinase (ATR/ATRIP (h)), sequence (Q8WXE1 whole entry partner): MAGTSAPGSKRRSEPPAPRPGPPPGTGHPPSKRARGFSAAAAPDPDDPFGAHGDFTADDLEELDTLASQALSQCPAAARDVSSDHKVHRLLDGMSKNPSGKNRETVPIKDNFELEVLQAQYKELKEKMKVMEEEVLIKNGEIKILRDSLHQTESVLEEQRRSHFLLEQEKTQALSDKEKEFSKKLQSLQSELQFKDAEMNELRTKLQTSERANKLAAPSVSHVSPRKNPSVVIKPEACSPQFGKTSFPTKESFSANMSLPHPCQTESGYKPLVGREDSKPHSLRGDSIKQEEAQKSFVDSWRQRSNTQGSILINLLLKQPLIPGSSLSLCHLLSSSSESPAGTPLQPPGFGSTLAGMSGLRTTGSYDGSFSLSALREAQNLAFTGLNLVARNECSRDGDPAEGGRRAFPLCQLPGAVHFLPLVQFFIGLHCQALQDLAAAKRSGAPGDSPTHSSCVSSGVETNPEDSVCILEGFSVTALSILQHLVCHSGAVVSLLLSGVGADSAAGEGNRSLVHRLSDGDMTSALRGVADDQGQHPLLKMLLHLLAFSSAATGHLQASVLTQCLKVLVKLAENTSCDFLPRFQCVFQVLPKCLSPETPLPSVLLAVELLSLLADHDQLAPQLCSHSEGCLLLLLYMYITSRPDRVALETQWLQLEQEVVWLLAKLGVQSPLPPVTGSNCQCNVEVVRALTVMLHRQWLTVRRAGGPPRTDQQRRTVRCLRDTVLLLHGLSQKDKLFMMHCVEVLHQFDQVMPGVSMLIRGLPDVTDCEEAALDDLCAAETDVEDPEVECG

As usually defined, the IC50 is the concentration needed to halve the response being measured. A high value points to lower potency. On to `COc1cc(C)c(-c2cc(-c3c(F)ncc4[nH]ccc34)nc(N3CCOC[C@H]3C)c2)cn1` [Compound 10], for which, in data set [1], half-maximal inhibition (IC50) required 182 nM. This lies in the sub-micromolar range.
The compound `Cc1noc(C)c1-c1cc(-c2c(F)ncc3[nH]ccc23)nc(N2CCOC[C@H]2C)c1` [Compound 16] displayed an IC50 in data set [1] of 78 nM.
On to `Cc1ncccc1-c1cc(-c2c(F)ncc3[nH]ccc23)nc(N2CCOC[C@H]2C)c1` [Compound 7], for which the IC50 in data set [1] worked out at 78 nM. That is a double-digit nanomolar value.
With `Cc1cnn(C)c1-c1cc(-c2c(F)ncc3[nH]ccc23)nc(N2CCOC[C@H]2C)c1` [Compound 14], the IC50 in data set [1] came to 57 nM.
For the compound `Cc1nnc(C)n1-c1cc(-c2c(F)ncc3[nH]ccc23)nc(N2CCOC[C@H]2C)c1` [Compound 2], the IC50 came out at 69 nM in data set [1] and 234 nM with tumor cell line LoVo.
As to `C[C@@H]1COCCN1c1cc(-c2cccn2C)cc(-c2c(F)ncc3[nH]ccc23)n1` [Compound 5], inhibition in data set [1] was half-maximal at 336 nM (IC50).
In the case of `Cc1ccccc1-c1cc(-c2c(F)ncc3[nH]ccc23)nc(N2CCOC[C@H]2C)c1` [Compound 8], the IC50 in data set [1] came out at 425 nM.
As usually defined, the AUC(0-t) is exposure summed from dosing to a finite time, without extrapolation to infinity. High values mean more exposure, low ones less exposure. One may read the clearance as the rate of elimination divided by the concentration. High values mean efficient removal, low ones inefficient removal. By half-life is commonly meant how long it takes for the measured level to halve. Read a low half-life as fast loss. In general, Cmax refers to the highest concentration seen after dosing. In the case of `Cc1nnn(C)c1-c1cc(-c2c(F)ncc3[nH]ccc23)nc(N2CCOC[C@H]2C)c1` [Compound 1], the half-maximal inhibitory concentration (IC50) in data set [1] stood at 33 nM; with tumor cell line LoVo it was 102 nM. The compound also displayed a C0 in data set [2] (mouse, intravenous 1 mg/kg, plasma) of 2.8 µM. Also, the exposure AUC(0-t) was 2.55 µM·h in data set [2] (setting [4]); 23 µM·h in data set [2] (mouse, plasma, oral 10 mg/kg); 82 µM·h in data set [2] (mouse, plasma, oral 25 mg/kg). Also, the clearance in data set [2] (setting [4]) came to 15.8 mL/min/kg. In addition, the half-life in data set [2] (setting [4]) is 1.32 h; in data set [2] (mouse, plasma, oral 10 mg/kg), 1.4 h; in data set [2] (mouse, plasma, oral 25 mg/kg), 3.8 h. The Vd in data set [2] (mouse, plasma, intravenous 1 mg/kg, read-out: Vdss) was found to be 1.65 L/kg. Further, the Cmax was 9.56 µM in data set [2] (mouse, plasma, oral 10 mg/kg) and 17.4 µM in data set [2] (mouse, plasma, oral 25 mg/kg). Also, in data set [2] (oral 10 mg/kg vs intravenous 1 mg/kg), the F stood at 91.6%. The tumor volume in data set [3] (oral 5 mg/kg (continuous administration)) is 229.99±24.42 mm^3; in data set [3] (oral 10 mg/kg (3 days on, 4 days off)), 136.74±14.46 mm^3; in data set [3] (oral 15 mg/kg (3 days on, 4 days off)), 108.74±9.67 mm^3. The “tumor inhibition rate TGI” value in data set [3] (oral 5 mg/kg (continuous administration), day 21, p<0.01) is on record as 88.61%; in data set [3] (oral 10 mg/kg (3 days on, 4 days off), day 21, P<0.01), 101.08%; in data set [3] (oral 15 mg/kg (3 days on, 4 days off), day 21, p<0.01) it was 104.81%. Besides, the animal state result in data set [3] (setting [5]) is “had no abnormality”. For the same compound, the “body weight of the animals” value in data set [3] (setting [5]) is recorded as “did not decrease significantly”.
Take `C[C@@H]1COCCN1c1cc(-c2cnnn2C)cc(-c2c(F)ncc3[nH]ccc23)n1` [Compound 6]: the half-inhibitory concentration (IC50) in data set [1] was determined as 211 nM.
In data set [1], `C[C@@H]1COCCN1c1cc(-c2ccnn2C)cc(-c2c(F)ncc3[nH]ccc23)n1` [Compound 15] returned a concentration for half-maximal inhibition (IC50) of 204 nM.
`Cc1n[nH]c(C)c1-c1cc(-c2c(F)ncc3[nH]ccc23)nc(N2CCOC[C@H]2C)c1` [Compound 9]: half-maximal inhibition in data set [1] (IC50) required 31 nM.
On the same count and under the same terms, then `Cc1nn(C)cc1-c1cc(-c2c(F)ncc3[nH]ccc23)nc(N2CCOC[C@H]2C)c1` [Compound 13], with 500 nM.
